From paper PMC6941823, “A dispensable paralog of succinate dehydrogenase subunit C mediates standing resistance towards a subclass of SDHI fungicides in Zymoseptoria tritici” (PLoS Pathogens, 2019)
Like-named read-outs stand apart in the source and are kept apart here.

Tests used:
[1] = target: WT-SQR (SDHC), IPO323 mitochondria (Zymoseptoria tritici, UniProt F9X9V6+F9XH52+O42772); experiment: Succinate-quinone (SQR) SDHI sensitivity assay on purified mitochondria, IPO323; assay type: biochemical
Summary of the method: (§1)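 Mitochondria purified from each strain were used for succinate:ubiquinone/DCPIP reductase assays, with suspensions adjusted to similar initial velocity (1 OD595nm hour^-1). Inhibitor was tested at 0.047 nM–50 μM in 4x steps (11 concentrations plus DMSO). IC50 came from non-linear fits of absorbance slopes (OD/min) against log concentration.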

[2] = target: SQR of 06STD024 (SDHC / altC) mitochondria (Zymoseptoria tritici, UniProt A0A1X7RQW2+F9X9V6+F9XH52+O42772); experiment: Succinate-quinone (SQR) SDHI sensitivity assay on purified mitochondria, 06STD024; assay type: biochemical; settings: for RF (resistance factor), 06STD024 (SDHC / altC): IC50 ratio compared to IPO323 values; for IC50: mitochondria of field isolate 06STD024, mean of three ± SD
Summary of the method: (§2)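 Succinate:ubiquinone/DCPIP reductase inhibition measured on purified mitochondria from Zymoseptoria tritici strains carrying either a single C-subunit gene (ZtSDHC1, ZtSDHC1_A84I or ZtSDHC3) or both ZtSDHC1 and ZtSDHC3; pTet::SDHC3 transformant tested under repressed and induced conditions.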

[3] = target: SQR (SDHC) of D024 SDHC3 KO mitochondria (Zymoseptoria tritici, UniProt F9X9V6+F9XH52+O42772); experiment: Succinate-quinone (SQR) SDHI sensitivity assay on purified mitochondria, 06STD024 SDHC3 KO; assay type: biochemical; settings: for RF (resistance factor), D024 SDHC3 KO (SDHC): IC50 ratio compared to IPO323 values; for IC50: mitochondria of 06STD024 ZtSDHC3 deletion mutant, mean of three ± SD
Summary of the method: as §1

[4] = target: altC-SQR (altC) of D024 SDHC1 KO mitochondria (Zymoseptoria tritici, UniProt A0A1X7RQW2+F9X9V6+O42772); experiment: Succinate-quinone (SQR) SDHI sensitivity assay on purified mitochondria, 06STD024 SDHC1 KO; assay type: biochemical; settings: for RF (resistance factor), D024 SDHC1 KO (altC): IC50 ratio compared to IPO323 values; for IC50: mitochondria of 06STD024 ZtSDHC1 deletion mutant (pure altC-SQR), mean of three ± SD
Summary of the method: as §2

[5] = test system: SQR (SDHC / altC) of IPO323 pTet::SDHC3 transformant, induced; experiment: Succinate-quinone (SQR) SDHI sensitivity assay on purified mitochondria, IPO323 pTet::SDHC3 induced; assay type: biochemical, Zymoseptoria tritici; settings: IPO323 pTet::SDHC3 transformant grown in the absence of doxycycline; mean of three ± SD
Summary of the method: as §2

[6] = target: SQR (SDHC / altC) of IPO323 pTet::SDHC3 transformant, repressed (Zymoseptoria tritici, UniProt A0A1X7RQW2+F9X9V6+F9XH52+O42772); experiment: Succinate-quinone (SQR) SDHI sensitivity assay on purified mitochondria, IPO323 pTet::SDHC3 repressed; assay type: biochemical; settings: for RF (resistance factor), pTet Repressed (SDHC / altC): IC50 ratio compared to IPO323 values; for IC50: IPO323 pTet::SDHC3 transformant grown in presence of 30 mg.L^-1 doxycycline, mean of three ± SD
Summary of the method: as §2

[7] = test system: Zymoseptoria tritici field and genetically modified strains; experiment: Liquid culture assay for fungicide sensitivity determination; assay type: cell-based; settings: Zymoseptoria tritici
Summary of the method: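 EC50s from liquid culture growth tests with field isolates and modified strains. Population monitoring used final concentrations 100 to 0.0001 mg.L^-1 in 10x steps (7 levels plus DMSO control); refined panel profiling used 0.5 mM to 0.47 nM in 4x steps (11 levels plus DMSO).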

[8] = read-out: EC50 (nM) Mean, strain 06STD024, liquid culture sensitivity
[9] = read-out: EC50 (nM) Mean, strain 07STGB009, liquid culture sensitivity
[10] = read-out: EC50 (nM) Mean, strain 09STD041, liquid culture sensitivity
[11] = read-out: EC50 (nM) Mean, strain 09STD053, liquid culture sensitivity
[12] = read-out: EC50 (nM) Mean, strain 09STF011, liquid culture sensitivity
[13] = read-out: EC50 (nM) Mean, strain 09STF037, liquid culture sensitivity
[14] = read-out: EC50 (nM) Mean, strain 09STF112, liquid culture sensitivity
[15] = read-out: EC50 (nM) Mean, strain 09STIR20.3, liquid culture sensitivity
[16] = read-out: EC50 (nM) Mean, strain Flu21 (SDHC1_A84I), liquid culture sensitivity
[17] = read-out: EC50 (nM) Mean, strain IPO323, liquid culture sensitivity
[18] = read-out: EC50 (nM) Mean, strain IPO94269, liquid culture sensitivity
[19] = read-out: EC50 (nM) Mean, strain KO_SDHC1_T1, liquid culture sensitivity
[20] = read-out: EC50 (nM) Mean, strain KO_SDHC1_T3, liquid culture sensitivity
[21] = read-out: EC50 (nM) Mean, strain KO_SDHC3_T4, liquid culture sensitivity
[22] = read-out: EC50 (nM) Mean, strain KO_SDHC3_T13, liquid culture sensitivity
[23] = read-out: EC50 (nM) Mean, strain pTet::SDHC3_I78A_T1, liquid culture sensitivity
[24] = read-out: EC50 (nM) Mean, strain pTet::SDHC3_I78A_T5, liquid culture sensitivity
[25] = read-out: EC50 (nM) Mean, strain pTet::SDHC3_I78A_T15, liquid culture sensitivity
[26] = read-out: EC50 (nM) Mean, strain pTet::SDHC3_I78A_T35, liquid culture sensitivity
[27] = read-out: EC50 (nM) Mean, strain pTet::SDHC3_T1, liquid culture sensitivity
[28] = read-out: EC50 (nM) Mean, strain pTet::SDHC3_T2, liquid culture sensitivity
[29] = read-out: EC50 (nM) Mean, strain pTet::SDHC3_T3, liquid culture sensitivity
[30] = read-out: EC50 (nM) Mean, strain pTet::SDHC3_T7, liquid culture sensitivity

altC-SQR (altC) of D024 SDHC1 KO mitochondria, sequence (A0A1X7RQW2 36-181): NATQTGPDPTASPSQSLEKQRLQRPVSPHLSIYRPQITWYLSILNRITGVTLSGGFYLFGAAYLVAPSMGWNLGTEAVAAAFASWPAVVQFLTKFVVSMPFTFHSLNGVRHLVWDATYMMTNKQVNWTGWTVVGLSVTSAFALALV
altC-SQR (altC) of D024 SDHC1 KO mitochondria, sequence (O42772 20-297): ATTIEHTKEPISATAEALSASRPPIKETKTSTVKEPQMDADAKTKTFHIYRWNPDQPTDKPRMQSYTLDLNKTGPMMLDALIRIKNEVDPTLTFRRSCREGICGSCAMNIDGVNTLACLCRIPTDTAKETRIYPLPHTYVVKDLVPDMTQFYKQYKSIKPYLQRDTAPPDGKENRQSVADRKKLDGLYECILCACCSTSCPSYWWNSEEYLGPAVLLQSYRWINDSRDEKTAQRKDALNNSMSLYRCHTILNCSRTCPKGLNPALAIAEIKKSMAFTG
altC-SQR (altC) of D024 SDHC1 KO mitochondria, sequence (F9X9V6 1-193): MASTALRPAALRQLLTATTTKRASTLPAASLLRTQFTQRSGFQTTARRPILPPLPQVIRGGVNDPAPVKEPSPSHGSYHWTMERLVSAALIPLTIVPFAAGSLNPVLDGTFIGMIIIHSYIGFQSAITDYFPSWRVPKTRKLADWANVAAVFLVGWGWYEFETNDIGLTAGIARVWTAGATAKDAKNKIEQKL
altC-SQR (altC) of D024 SDHC1 KO mitochondria, sequence (F9WWR1 41-643 partner): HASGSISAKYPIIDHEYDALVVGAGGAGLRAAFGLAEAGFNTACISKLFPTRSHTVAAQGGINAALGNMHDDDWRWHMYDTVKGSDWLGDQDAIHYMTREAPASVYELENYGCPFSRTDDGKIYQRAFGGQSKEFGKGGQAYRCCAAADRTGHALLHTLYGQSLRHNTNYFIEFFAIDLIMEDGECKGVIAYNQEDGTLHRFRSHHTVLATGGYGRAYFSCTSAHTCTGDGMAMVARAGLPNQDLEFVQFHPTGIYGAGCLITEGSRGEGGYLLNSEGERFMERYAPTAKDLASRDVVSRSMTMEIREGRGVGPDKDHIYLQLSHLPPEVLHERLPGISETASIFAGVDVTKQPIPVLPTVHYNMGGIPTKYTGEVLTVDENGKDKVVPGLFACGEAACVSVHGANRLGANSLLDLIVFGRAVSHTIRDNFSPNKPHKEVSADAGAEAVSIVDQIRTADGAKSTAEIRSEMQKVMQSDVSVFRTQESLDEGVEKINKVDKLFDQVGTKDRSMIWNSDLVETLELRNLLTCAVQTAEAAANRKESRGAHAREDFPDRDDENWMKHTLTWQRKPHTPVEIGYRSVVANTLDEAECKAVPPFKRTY
SQR of 06STD024 (SDHC / altC) mitochondria, sequence (A0A1X7RQW2 36-181): as the sequence (A0A1X7RQW2 36-181) above
SQR of 06STD024 (SDHC / altC) mitochondria, sequence (O42772 19-297): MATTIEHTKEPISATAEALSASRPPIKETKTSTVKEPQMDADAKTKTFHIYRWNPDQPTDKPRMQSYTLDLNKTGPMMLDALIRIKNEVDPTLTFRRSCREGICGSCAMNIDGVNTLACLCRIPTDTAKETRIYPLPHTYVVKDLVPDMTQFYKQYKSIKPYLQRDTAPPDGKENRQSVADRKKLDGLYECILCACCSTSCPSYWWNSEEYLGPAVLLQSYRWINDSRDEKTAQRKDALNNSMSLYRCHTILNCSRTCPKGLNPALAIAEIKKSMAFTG
SQR of 06STD024 (SDHC / altC) mitochondria, sequence (F9X9V6 1-193): as the sequence (F9X9V6 1-193) above
SQR of 06STD024 (SDHC / altC) mitochondria, sequence (F9XH52 44-187): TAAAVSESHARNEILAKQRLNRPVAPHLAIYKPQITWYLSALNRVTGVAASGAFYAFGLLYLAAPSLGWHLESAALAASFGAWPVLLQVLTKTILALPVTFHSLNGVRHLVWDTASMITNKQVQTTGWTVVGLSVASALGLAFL
SQR of 06STD024 (SDHC / altC) mitochondria, sequence (F9WWR1 29-643 partner): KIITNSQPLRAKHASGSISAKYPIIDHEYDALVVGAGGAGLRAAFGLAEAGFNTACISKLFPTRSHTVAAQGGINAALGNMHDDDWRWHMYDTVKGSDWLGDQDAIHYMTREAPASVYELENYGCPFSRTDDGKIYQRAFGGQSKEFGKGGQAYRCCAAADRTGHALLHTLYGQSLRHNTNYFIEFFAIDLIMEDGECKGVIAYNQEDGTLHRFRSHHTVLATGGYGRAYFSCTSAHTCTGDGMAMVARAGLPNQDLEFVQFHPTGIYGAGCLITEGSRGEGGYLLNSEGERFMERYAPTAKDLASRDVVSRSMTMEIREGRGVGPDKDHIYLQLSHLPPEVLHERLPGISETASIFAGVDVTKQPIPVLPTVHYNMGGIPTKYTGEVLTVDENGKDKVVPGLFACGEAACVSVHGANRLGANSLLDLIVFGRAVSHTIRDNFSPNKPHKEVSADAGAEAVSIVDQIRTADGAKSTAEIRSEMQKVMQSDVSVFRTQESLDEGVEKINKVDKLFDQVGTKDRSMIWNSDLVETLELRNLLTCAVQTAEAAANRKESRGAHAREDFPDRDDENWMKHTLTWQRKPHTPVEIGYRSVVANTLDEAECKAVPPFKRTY
SQR (SDHC) of D024 SDHC3 KO mitochondria, sequence (F9XH52 44-187): as the sequence (F9XH52 44-187) above
SQR (SDHC) of D024 SDHC3 KO mitochondria, sequence (O42772 19-297): as the sequence (O42772 19-297) above
SQR (SDHC) of D024 SDHC3 KO mitochondria, sequence (F9X9V6 1-193): as the sequence (F9X9V6 1-193) above
SQR (SDHC) of D024 SDHC3 KO mitochondria, sequence (F9WWR1 29-643 partner): as the sequence (F9WWR1 29-643 partner) above

Structure (SMILES): O=C(NCCc1ncc(C(F)(F)F)cc1Cl)c1ccccc1C(F)(F)F [Fluopyram]
- IC50 [1]: 0.0125 ± 0.002 µM
- RF (resistance factor), 06STD024 (SDHC / altC) [2]: 111.3
- IC50 [2]: 1.39 ± 0.522 µM
- RF (resistance factor), D024 SDHC3 KO (SDHC) [3]: 0.8
- IC50 [3]: 0.0101 ± 0.002 µM
- RF (resistance factor), D024 SDHC1 KO (altC) [4]: 93.4
- RF (resistance factor), D024 SDHC1 KO (altC) ([4]; listed as fluopyram): ~100
- IC50 [4]: 1.16 ± 0.201 µM
- IC50 [5]: 0.547 ± 0.0688 µM
- RF (resistance factor), pTet Repressed (SDHC / altC) [6]: 1.8
- IC50 [6]: 0.0219 ± 0.0077 µM
- EC50 [7, 8]: 9360 nM
- EC50 [7, 9]: 10900 nM
- EC50 [7, 10]: 1370 nM
- EC50 [7, 11]: 558 nM
- EC50 [7, 12]: 3570 nM
- EC50 [7, 13]: 461 nM
- EC50 [7, 14]: 2890 nM
- EC50 [7, 15]: 419 nM
- EC50 [7, 16]: 4580 nM
- EC50 [7, 17]: 222 nM
- EC50 [7, 18]: 147 nM
- EC50 [7, 19]: 25600 nM
- EC50 [7, 20]: 21200 nM
- EC50 [7, 21]: 350 nM
- EC50 [7, 22]: 351 nM
- EC50 [7, 23]: 354 nM
- EC50 [7, 24]: 818 nM
- EC50 [7, 25]: 552 nM
- EC50 [7, 26]: 143 nM
- EC50 [7, 27]: 16000 nM
- EC50 [7, 28]: 14300 nM
- EC50 [7, 29]: 6750 nM
- EC50 [7, 30]: 24500 nM
- EC50 ([7]; read-out: Fluopyram EC50 in liquid culture, panel of ZtSDHC3 containing isolates, field isolates collected in 2009 carrying ZtSDHC3, from sensitive to resistant): 0.3 to 3.2 mg/L

Structure (SMILES): CON(C(=O)c1cn(C)nc1C(F)F)[C@@H](C)Cc1c(Cl)cc(Cl)cc1Cl [Pydiflumetofen]
- IC50 [1]: 0.0003 ± 4e-05 µM
- RF (resistance factor), 06STD024 (SDHC / altC) [2]: 4.6
- IC50 [2]: 0.0014 ± 5e-05 µM
- RF (resistance factor), D024 SDHC3 KO (SDHC) [3]: 1.1
- IC50 [3]: 0.0003 ± 7e-05 µM
- RF (resistance factor), D024 SDHC1 KO (altC) [4]: 4.9
- RF (resistance factor), D024 SDHC1 KO (altC) ([4]; listed as pydiflumetofen): 6
- IC50 [4]: 0.0015 ± 0.0004 µM
- IC50 [5]: 0.0009 ± 0.0003 µM
- RF (resistance factor), pTet Repressed (SDHC / altC) [6]: 1.7
- IC50 [6]: 0.0005 ± 0.0001 µM
- EC50 [7, 8]: 28.2 nM
- EC50 [7, 9]: 24.5 nM
- EC50 [7, 10]: 19.8 nM
- EC50 [7, 11]: 6.4 nM
- EC50 [7, 12]: 17.8 nM
- EC50 [7, 13]: 8.1 nM
- EC50 [7, 14]: 18.7 nM
- EC50 [7, 15]: 8.1 nM
- EC50 [7, 16]: 163 nM
- EC50 [7, 17]: 4.5 nM
- EC50 [7, 18]: 4.7 nM
- EC50 [7, 19]: 377 nM
- EC50 [7, 20]: 230 nM
- EC50 [7, 21]: 5.1 nM
- EC50 [7, 22]: 5.6 nM
- EC50 [7, 23]: 4.8 nM
- EC50 [7, 24]: 6 nM
- EC50 [7, 25]: 4.9 nM
- EC50 [7, 26]: 2.9 nM
- EC50 [7, 27]: 164 nM
- EC50 [7, 28]: 160 nM
- EC50 [7, 29]: 108 nM
- EC50 [7, 30]: 183 nM
